In patent publication US8334105B2, “Methods for treating cardiac disease by modifying an N-terminal domain of troponin I” (Northshore University Healthsystem, priority 2004, dated 2012):

Assays:
[1] = system: isolated working mouse hearts; test: Langendorff-Neely isolated working heart preparation
Procedure: Cardiac function of wild-type and transgenic mice were measured at 5-6 months of age using the Langendorff-Neely isolated working heart preparation, at a constant preload of 10 mmHg and an afterload of 55 mmHg, as previously described (29-31, incorporated herein by reference). Mice were anesthetized as above and the thoracic cavity was opened by a transverse incision to access the heart. Retrograde perfusion through the aorta was initiated within 60 seconds after removal of the heart. After establishing left atrial perfusion, the heart was switched to working mode. The hearts were perfused with Krebs-Henseleit bicarbonate buffer aerated with 95% O2-5% CO2 at 37° C. (pH=7.4). The buffer contents were as follows (in mM): 118 NaCl, 4.7 KCl, 2.25 CaCl2, MgSO4, 1.2 KH2PO4, 0.32 EGTA, 25 NaHCO3, and 11 D-glucose (29). Functions of the isolated working hearts were measured on intrinsic beats at 37° C. with no artificial pacing applied.
Aortic flow and coronary effluent were collected once every two minutes over a 30-minute period. Heart rate and the maximum rate of pressure development (dP/dt) were measured using an MLT844 pressure transducer (Capto, Horten, Norway) attached to the aortic cannula. […]
Stroke volume (μL/g heart tissue) was calculated as the sum of aortic flow and coronary effluent, normalized to heart rate. Stroke work (mL-mmHg/g heart tissue) was calculated as stroke volume X average aortic pressure (diastolic pressure+one-third of pulse pressure) (mmHg). During the collection of aortic flow, time to peak pressure (TTP) and the relaxation times (RT) at 10, 50 and 80% total relaxation (RT10, RT50 and RT80, respectively) were measured from the pressure traces. Systolic and diastolic pressure time integrals (STI, correlating with myocardial energy expenditure (31-34), and DTI, correlating with diastolic function and coronary perfusion (35-42), respectively) were calculated by integrating the systolic and diastolic portions of the pressure waves. […]

[2] = system: actomyosin ATPase of mouse cardiac myofibrils; test: Actomyosin MgATPase assay of isolated cardiac myofibrils (Ca2+ sensitivity); assay type: biochemical
Procedure: Mice were anesthetized with sodium pentobarbital (50 mg/kg body weight, i.p.). Hearts removed from transgenic or control mice were perfused in a retrograde manner, either with normal saline or with saline containing 20 nM isoproterenol. Cardiac myofibrils were prepared according to the method described by Solaro et al. (23, incorporated herein by reference) with modifications. These include the use of NaF (50 mM), EGTA (2.5 mM), and KH2PO4 as phosphatase inhibitors and phenylmethylsulphonyl fluoride (0.2 mM) as a protease inhibitor (24). The ventricular muscle was pulverized in a food blender for 10 seconds in 50 ml buffer containing 0.5% (v/v) Triton X-100®, 60 mM KCl, 30 mM imidazole, pH 7.0, 2 mM MgCl2, and 1 mM DTT, incubated for 5 min and centrifuged at 2,500×g for 2 min. Pellets were washed three times in buffer containing 60 mM KCl, 30 mM imidazole, pH 7.0, 2 mM MgCl2, and 1 mM DTT.
Actomyosin MgATPase assays were performed to titrate the Ca^2+ sensitivity of the transgenic and wild-type mouse cardiac myofibrils under constant ionic strength, using the stability constants compiled by Fabiato (25), and were performed at pH 7.0 with 50 mM imidazole, 50 mM KCl, and 2 mM MgATP at 37° C. Inorganic phosphate release was measured as the amount of heteropolymolybdenum (26) using an automated microtiter plate reader (Bio-Rad Benchmark) for optical density at 660 nm, as described previously (27, incorporated herein by reference).

transgenic mouse hearts = test: Observation of transgenic mice and hearts for hypertrophy and abnormality; assay type: in vivo
Excerpt: Transgenic mice over-expressing various levels of cTnI-ND in the heart are apparently normal in life activities.

Molecule	−dP/dt produced by isoproterenol treatment in WT hearts ([1]; 10 nM isoproterenol, WT hearts)	effect of isoproterenol on velocity of contraction (+dP/dt) ([1]; 10 nM isoproterenol, WT, INT-cTnI-ND and H-cTnI-ND hearts)	effect of isoproterenol on relaxation velocity ([1]; 30 nM and 50 nM isoproterenol perfusions, all three groups of hearts)	maximum actomyosin ATPase rate with isoproterenol treatment, WT myofibrils ([2]; WT cardiac myofibrils, with isoproterenol treatment)	pCa50 ([2]; myofibrils from isoproterenol perfused WT hearts)	maximum Ca^2+-activated actomyosin ATPase rate ([2]; cTnI-ND cardiac myofibrils, base line)	maximum actomyosin ATPase rate with isoproterenol treatment, cTnI-ND myofibrils ([2]; cTnI-ND cardiac myofibrils, with isoproterenol treatment)	hypertrophy (heart weight/body weight ratio, diameter of cardiac myocytes) (transgenic mouse hearts; compared with wild type controls)	anatomical or histological abnormality of hearts (transgenic mouse hearts; transgenic mouse hearts)
CC(C)NCC(O)c1ccc(O)c(O)c1 (stereo not drawn) [isoproterenol]	2087±58 mmHg-sec^−1	increased in all three groups	significant increases in relaxation velocity	418±57 nmole Pi/mg protein/min	5.91±0.05				
cTnI-ND: N-terminus truncated mouse cardiac troponin I that lacks amino acids 1-28, over-expressed in transgenic mouse hearts						417±48 nmole Pi/mg protein/min	421±43 nmole Pi/mg protein/min	No evidence of hypertrophy	no evidence of anatomical or histological abnormality
